Results on 2 substances are retold here after US20230149333A1, “COMPOSITIONS AND USES OF LOCALLY APPLIED SYNTHETIC AMINO ACID POLYMERS FOR PREVENTION AND TREATMENT OF VIRAL INFECTIONS” (Amicrobe, Inc., priority 2020, published 2023).

Assay [1] relates to Coronavirus (strain OC43). Put plainly: Virucidal Suspension Test (In-Vitro Time-Kill method) based upon ASTM E1052-20. How it is done: (§1) The antiviral activities of Composition A and Composition B were evaluated by challenging them with two different viruses, Coronavirus (strain OC43, ZeptoMetrix Corp. #0810024CF) and Influenza A H1N1 (strain A/WS/33, ATCC #VR-1520). A Virucidal Suspension Test (In-Vitro Time-Kill method) based upon the ASTM E1052-20, “Standard Practice to Assess the Activity of Microbicides against Viruses in Suspension” was used. The percent and log10 reductions from the initial populations of the viral strains were determined following exposure to Compositions A and B at two different exposure times (2 minutes and 10 minutes).

The subject of assay [2] is Influenza A H1N1 (strain A/WS/33). The assay is described as above. How it is done:
as §1

Consider “Poly(L-lysine hydrochloride)-b-poly(D,L-leucine) [Composition A]”, for which the Log10 reduction in assay [1] (10 µg/mL, 2 min exposure) is on record as 0.25 log10; in assay [1] (10 µg/mL, 10 min exposure) it was 0.5 log10; in assay [1] (100 µg/mL, 2 min exposure), 0.25 log10; in assay [1] (100 µg/mL, 10 min exposure), 0.5 log10; in assay [1] (1000 µg/mL, 2 min exposure) it was 0.5 log10; in assay [1] (1000 µg/mL, 10 min exposure) it was 1 log10. For the same substance, the Log10 reduction is listed as 0.25 log10 in assay [2] (10 µg/mL, 2 min exposure); 0.50 log10 in assay [2] (10 µg/mL, 10 min exposure); 0.75 log10 in assay [2] (100 µg/mL, 2 min exposure); 0.75 log10 in assay [2] (100 µg/mL, 10 min exposure); 0.75 log10 in assay [2] (1000 µg/mL, 2 min exposure); 0.50 log10 in assay [2] (1000 µg/mL, 10 min exposure). In addition, the Percent reduction was 43.77% in assay [1] (10 µg/mL, 2 min exposure); 68.38% in assay [1] (10 µg/mL, 10 min exposure); 43.77% in assay [1] (100 µg/mL, 2 min exposure); 68.38% in assay [1] (100 µg/mL, 10 min exposure); 68.38% in assay [1] (1000 µg/mL, 2 min exposure); 90% in assay [1] (1000 µg/mL, 10 min exposure). Further, the Percent reduction in assay [2] (10 µg/mL, 2 min exposure) was found to be 43.77%; in assay [2] (10 µg/mL, 10 min exposure), 68.38%; in assay [2] (100 µg/mL, 2 min exposure) it was 82.22%; in assay [2] (100 µg/mL, 10 min exposure) it was 82.22%; in assay [2] (1000 µg/mL, 2 min exposure), 82.22%; in assay [2] (1000 µg/mL, 10 min exposure), 68.38%.

As to “Poly(L-lysine hydrochloride)-b-poly(L-leucine) [Composition B]”, the Log10 reduction was 0.25 log10 in assay [1] (10 µg/mL, 2 min exposure); 1 log10 in assay [1] (10 µg/mL, 10 min exposure); 0.75 log10 in assay [1] (100 µg/mL, 2 min exposure); 0.75 log10 in assay [1] (100 µg/mL, 10 min exposure); 0.5 log10 in assay [1] (1000 µg/mL, 2 min exposure); 0.75 log10 in assay [1] (1000 µg/mL, 10 min exposure). Also, the Log10 reduction in assay [2] (10 µg/mL, 2 min exposure) came out at 0.75 log10; in assay [2] (10 µg/mL, 10 min exposure), 0.75 log10; in assay [2] (100 µg/mL, 2 min exposure), 0.50 log10; in assay [2] (100 µg/mL, 10 min exposure), 0.50 log10; in assay [2] (1000 µg/mL, 2 min exposure), 0.00 log10; in assay [2] (1000 µg/mL, 10 min exposure), 1.00 log10. Moreover, the Percent reduction in assay [1] (10 µg/mL, 2 min exposure) came to 43.77%; in assay [1] (10 µg/mL, 10 min exposure), 90%; in assay [1] (100 µg/mL, 2 min exposure) it was 82.22%; in assay [1] (100 µg/mL, 10 min exposure) it was 82.22%; in assay [1] (1000 µg/mL, 2 min exposure), 68.38%; in assay [1] (1000 µg/mL, 10 min exposure), 82.22%. Moreover, the Percent reduction was 82.22% in assay [2] (10 µg/mL, 2 min exposure); 82.22% in assay [2] (10 µg/mL, 10 min exposure); 68.38% in assay [2] (100 µg/mL, 2 min exposure); 68.38% in assay [2] (100 µg/mL, 10 min exposure); 0.00% in assay [2] (1000 µg/mL, 2 min exposure); 90.00% in assay [2] (1000 µg/mL, 10 min exposure).
